In US5324648A, “Substituted isocoumarins as serine protease inhibitors and anti-inflammatory agents” (Georgia Tech Research Corporation, priority 1992, dated 1994):
Where two headings read alike, the source gives them in different places.

Key:
cathepsin G = molecular target: T1, cathepsin G (Homo sapiens, UniProt P08311); test: Inactivation of cathepsin G; format: biochemical; parameters: percentage of inhibition: concentration or dose not given beside the values; conditions: for percentage of inhibition: after 5 min incubation; for kinact/KI: read-out: kobs/[I]
T1 construct: from tissue; host or cells: human leukocytes
T1 sequence (P08311 21-255): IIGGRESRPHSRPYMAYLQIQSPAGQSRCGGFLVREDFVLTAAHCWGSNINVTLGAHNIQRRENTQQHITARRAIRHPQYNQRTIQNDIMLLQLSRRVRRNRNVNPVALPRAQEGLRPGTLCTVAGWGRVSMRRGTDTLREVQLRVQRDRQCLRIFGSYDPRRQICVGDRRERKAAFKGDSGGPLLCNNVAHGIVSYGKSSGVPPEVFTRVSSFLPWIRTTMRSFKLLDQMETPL

chymotrypsin = chymotrypsin (Bos taurus, UniProt P00766); test: Inactivation of chymotrypsin; format: biochemical, bovine
[1] = molecular target: T2, human leukocyte elastase (HLE) (Homo sapiens, UniProt P08246); test: Inactivation of human leukocyte elastase (HLE); format: biochemical
T2 construct: from tissue; host or cells: human leukocytes (from the name)
T2 sequence (P08246 30-267): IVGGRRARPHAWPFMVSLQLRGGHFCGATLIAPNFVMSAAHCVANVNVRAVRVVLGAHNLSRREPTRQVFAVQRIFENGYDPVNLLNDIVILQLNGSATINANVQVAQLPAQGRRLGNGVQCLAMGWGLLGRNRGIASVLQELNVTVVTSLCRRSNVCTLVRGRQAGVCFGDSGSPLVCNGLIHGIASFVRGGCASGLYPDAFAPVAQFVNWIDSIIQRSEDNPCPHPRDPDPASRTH

[2] = molecular target: T3, porcine pancreatic elastase (PPE) (Sus scrofa, UniProt P00772); test: Inactivation of porcine pancreatic elastase (PPE); format: biochemical; conditions: for kinact/KI: read-out: kobs/[I]
T3 construct: from tissue; host or cells: porcine pancreas (from the name)
Description: Inactivation rates of serine proteases by substituted isocoumarins were measured by the incubation method. An aliquot of inhibitor (25 or 50 μl) in Me2 SO was added to a buffered enzyme solution (0.01-2.3 μM) to initiate the inactivation. Aliquots (50 μl) were withdrawn at various intervals and the residual enzymatic activity was measured. Me2 SO concentration in the reaction mixture was 8-12% (v/v). 0.1 Hepes, 0.01M CaCl2, pH 7.5 buffer was utilized for trypsin and coagulation enzymes. 0.1M Hepes, 0.5M NaCl, pH 7.5 was utilized for other serine proteases. […] Peptide thioesters or peptide nitroanilides with appropriate sequence were used as substrates for various serine proteases. All peptide thioester hydrolysis rates were measured with assay mixtures containing 4,4'-dithiodipyridine (ε324 =19800M^-1 cm^-1 ; Grasetti & Murray, Arch. Biochem. Biophys. 119, pp 41-49 (1967)). Peptide 4-nitroanilide nitroanilide hydrolysis was measured at 410 nm (ε410 =8800M^-1 cm^-1 ; Erlanger et al., Arch. Biochem. Biophys. 95, pp 271-278 (1961)). First order inactivation rate constant (kobs) were obtained from plots of ln (vt /vo) vs time, and the correlation coefficients were greater than 0.98.
^a Inactivation rates were measured at 0.1M Hepes, 0.5 NaCl, pH 7.5,
8-12% Me2 SO and 25° C. by incubation method.
^a Inhibition rates were measured in 0.1M Hepes, 0.05M NaCl, pH 7.5
buffer, 8-9% Me2 SO and at 25° C.
^a Inhibition constants were in 0.1M Hepes, 0.5M NaCl, pH 7.5 buffer,
8-9% Me2 SO and at 25° C.
^a Inhibition rates were measured in 0.1M Hepes, 0.5M NaCl, 2.5%
Me2 SO, pH 7,5 and at 25° C.
^a Inhibition was measured in 0.1M Hepes, 0.5M NaCl, pH 7.5 buffer,
5-10% Me2 SO and at 25° C. Suc--Val--Pro--Phe--NA (0.48 mM)
was used as the substrate for chymotrypsin and cat G.
^a Inhibition rates were measured in 0.1M Hepes, 0.5M NaCl, pH 7.5

[3] = Table XVI, pH 7.5, 25° C, [I] 35-710 μM
[4] = Table XVI, pH 7.5, 25° C, [I] 0.04-2.0 mM
[5] = Table XVI, pH 7.5, 25° C, [I] 1.7-58 μM, read-out: kobs/[I]
[6] = pH 7.5, Table XVI, biphasic plot, read-out: kobs/[I] (biphasic, first value)
[7] = pH 7.5, Table XVI, biphasic plot, read-out: kobs/[I] (biphasic, second value)
[8] = pH 7.5, Table XVI, second order, equimolar inhibitor and enzyme, read-out: kobs/[I]
[9] = Table XVI, pH 7.5, 25° C, [I] 0.07-710 μM, read-out: kobs/[I]
[10] = pH 7.5, Table XII, 2.5% Me2SO, 25° C, [I] 8.7-87 μM
[11] = pH 7.5, Table XII, 2.5% Me2SO, 25° C, [I] 3.4-70 μM, read-out: kobs/[I]
[12] = pH 7.5, Table XII, 2.5% Me2SO, 25° C, [I] 0.7-1.9 μM, read-out: kobs/[I]
[13] = pH 7.5, Table XII, 2.5% Me2SO, 25° C, [I] 34-56 μM

T3 sequence (P00772 27-266): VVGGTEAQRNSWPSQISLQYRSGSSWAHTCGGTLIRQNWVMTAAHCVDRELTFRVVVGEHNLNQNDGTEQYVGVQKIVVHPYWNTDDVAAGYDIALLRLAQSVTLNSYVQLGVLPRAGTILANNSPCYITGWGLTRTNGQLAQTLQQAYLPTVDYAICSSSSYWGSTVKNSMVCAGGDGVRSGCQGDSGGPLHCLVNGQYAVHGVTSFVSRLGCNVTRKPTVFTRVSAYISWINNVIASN

Compound | kinact/KI (chymotrypsin; [5]) [M⁻¹ s⁻¹] | kinact/KI [2, 4] [M⁻¹ s⁻¹] | kinact/KI (cathepsin G; [3]) [M⁻¹ s⁻¹] | kinact/KI [1, 8] [M⁻¹ s⁻¹] | other results
CCCOCCOc1oc(=O)c2cc(N)ccc2c1Cl |  |  |  |  | kobs/[I] (cathepsin G; [3]): 2.6 M⁻¹ s⁻¹; kobs/[I] (chymotrypsin; Table XVI, pH 7.5, 25° C, [I] 1.7-58 μM): 140 M⁻¹ s⁻¹; kobs/[I] ([1]; Table XVI, pH 7.5, 25° C, [I] 0.07-710 μM): 33 M⁻¹ s⁻¹; kobs/[I] [2, 4]: 0.5 M⁻¹ s⁻¹
CC(C)(C)OC(=O)N[C@H](Cc1ccccc1)C(=O)Nc1ccc2c(Cl)c(OCCBr)oc(=O)c2c1 [7-(N-t-butyloxycarbonyl-D-phenylalanyl)amino-4-chloro-3-(2-bromoethoxy)isocoumarin] | 150 | 30 |  |  | percentage of inhibition (cathepsin G; Table XVI): 19%
C[C@H](NC(=O)OC(C)(C)C)C(=O)N[C@@H](C)C(=O)Nc1ccc2c(Cl)c(OCCBr)oc(=O)c2c1 [7-(N-t-butyloxycarbonyl-L-alanylalanyl)amino-4-chloro-3-(2-bromoethoxy)isocoumarin] |  | 1670 | 46 | 230000 | kinact/KI (chymotrypsin; [6]): 2750 M⁻¹ s⁻¹; kinact/KI (chymotrypsin; [7]): 810 M⁻¹ s⁻¹
CC(C)(C)OC(=O)N[C@@H](Cc1ccccc1)C(=O)Nc1ccc2c(Cl)c(OCCBr)oc(=O)c2c1 [7-(N-t-butyloxycarbonyl-L-phenylalanyl)amino-4-chloro-3-(2-bromoethoxy)isocoumarin] | 400 | 50 |  |  | percentage of inhibition (cathepsin G; Table XVI): 19%
O=C(O)c1cccc(NC(=S)Nc2ccc3c(Cl)c(OCCBr)oc(=O)c3c2)c1 [7-(m-carboxyphenyl)thiocarbamoylamino-4-chloro-3-(2-bromoethoxy)isocoumarin] | 1960 |  | 320 | > 240000 | 
O=C(O)c1ccc(NC(=S)Nc2ccc3c(Cl)c(OCCBr)oc(=O)c3c2)cc1 [7-(p-carboxyphenyl)thiocarbamoylamino-4-chloro-3-(2-bromoethoxy)isocoumarin] | 1720 |  | 450 | > 390000 | 
Nc1ccc2c(Cl)c(OCCBr)oc(=O)c2c1 [7-amino-4-chloro-3-(2-bromoethoxy)isocoumarin] | 1160 | 1000 | 410 |  | kinact/KI ([1]; pH 7.5, Table XVI, progress curve method, read-out: kobs/[I]): 200000 M⁻¹ s⁻¹
CC(CBr)Oc1oc(=O)c2cc(N)ccc2c1Cl (stereo not shown) [7-amino-4-chloro-3-(2-bromoisopropoxy)isocoumarin] | 320 | 62 | 150 |  | kinact/KI [1, 9]: 24000 M⁻¹ s⁻¹
Nc1ccc2c(Cl)c(OCCCBr)oc(=O)c2c1 [7-amino-4-chloro-3-(3-bromopropoxy)isocoumarin] | 790 | 10 | 210 |  | kinact/KI [1, 9]: 4000 M⁻¹ s⁻¹
CCCOc1oc(=O)c2cc(N)ccc2c1Cl [7-amino-4-chloro-3-propoxyisocoumarin] | 375 | 4.3 | 61 |  | kinact/KI [1, 9]: 390 M⁻¹ s⁻¹
O=C(NCc1ccccc1)Nc1ccc2c(Cl)c(OCCCBr)oc(=O)c2c1 [7-benzylcarbamoylamino-4-chloro-3-(3-bromopropoxy)isocoumarin] | 440 | 13 |  |  | percentage of inhibition (cathepsin G; Table XVI): 21%; kinact/KI [1, 9]: 15600 M⁻¹ s⁻¹
CCCOc1oc(=O)c2cc(NC(=O)CCc3ccccc3)ccc2c1Cl [7-dihydrocinnamoylamino-4-chloro-3-propyloxyisocoumarin] |  |  |  |  | kinact/KI (cathepsin G; [10]): 20 M⁻¹ s⁻¹; kinact/KI (chymotrypsin; [11]): 12000 M⁻¹ s⁻¹; kinact/KI [1, 12]: > 250000 M⁻¹ s⁻¹; kinact/KI [2, 13]: 220 M⁻¹ s⁻¹
CCCOc1oc(=O)c2cc(NC(=O)OCC)ccc2c1Cl [7-ethoxycarbonylamino-4-chloro-3-propyloxyisocoumarin] |  |  |  |  | kinact/KI (cathepsin G; [10]): 138 M⁻¹ s⁻¹; kinact/KI (chymotrypsin; [11]): 5200 M⁻¹ s⁻¹; kinact/KI [1, 12]: > 181000 M⁻¹ s⁻¹; kinact/KI [2, 13]: 1600 M⁻¹ s⁻¹
CCCOc1oc(=O)c2cc(NC(=O)NCC)ccc2c1Cl [7-ethylcarbamoylamino-4-chloro-3-propyloxyisocoumarin] |  |  |  |  | kinact/KI (cathepsin G; [10]): 166 M⁻¹ s⁻¹; kinact/KI (chymotrypsin; [11]): 120 M⁻¹ s⁻¹; kinact/KI [1, 12]: > 276000 M⁻¹ s⁻¹; kinact/KI [2, 13]: 80 M⁻¹ s⁻¹
O=C(Nc1ccc2c(Cl)c(OCCBr)oc(=O)c2c1)Nc1cccc2ccccc12 [7-naphthylcarbamoylamino-4-chloro-3-(2-bromoethoxy)isocoumarin] | 80 | 76 |  | 390000 | percentage of inhibition (cathepsin G; Table XVI): 22%
O=c1oc(OCCBr)c(Cl)c2ccc([N+](=O)[O-])cc12 [7-nitro-4-chloro-3-(2-bromoethoxy)isocoumarin] |  | 6330 | 710 |  | kinact/KI (chymotrypsin; [8]): 98000 M⁻¹ s⁻¹; kinact/KI [1, 9]: 65600 M⁻¹ s⁻¹
CC(CBr)Oc1oc(=O)c2cc([N+](=O)[O-])ccc2c1Cl (stereo not shown) [7-nitro-4-chloro-3-(2-bromoisopropoxy)isocoumarin] |  | 1060 | 1660 |  | kinact/KI (chymotrypsin; [8]): 200000 M⁻¹ s⁻¹
O=C(Cc1ccccc1)Nc1ccc2c(Cl)c(OCCBr)oc(=O)c2c1 [7-phenylacetylamino-4-chloro-3-(2-bromoethoxy)isocoumarin] |  | 4950 | 70 | 480000 | kinact/KI (chymotrypsin; [8]): 82000 M⁻¹ s⁻¹
O=C(Cc1ccccc1)Nc1ccc2c(Cl)c(OCCCBr)oc(=O)c2c1 [7-phenylacetylamino-4-chloro-3-(3-bromopropoxy)isocoumarin] |  | 28 |  |  | percentage of inhibition (cathepsin G; Table XVI): 28%; kinact/KI (chymotrypsin; [8]): 140000 M⁻¹ s⁻¹; kinact/KI [1, 9]: 32400 M⁻¹ s⁻¹
O=C(Nc1ccccc1)Nc1ccc2c(Cl)c(OCCCBr)oc(=O)c2c1 [7-phenylcarbamoylamino-4-chloro-3-(3-bromopropoxy)isocoumarin] | 180 | 4 |  |  | percentage of inhibition (cathepsin G; Table XVI): 17%; kinact/KI [1, 6]: 13800 M⁻¹ s⁻¹; kinact/KI [1, 7]: 2890 M⁻¹ s⁻¹
O=c1oc(OCCBr)c(Cl)c2ccc(NC(=S)Nc3ccccc3)cc12 [7-phenylthiocarbamoylamino-4-chloro-3-(2-bromoethoxy)isocoumarin] |  | 1250 | 200 | > 480000 | kinact/KI (chymotrypsin; [8]): 39000 M⁻¹ s⁻¹

Further lines, with some results ahead:

kinact/KI (chymotrypsin; [5]) [M⁻¹ s⁻¹] | kinact/KI [2, 4] [M⁻¹ s⁻¹] | kinact/KI (cathepsin G; [3]) [M⁻¹ s⁻¹] | kinact/KI [1, 8] [M⁻¹ s⁻¹] | Compound | other results
 | 9900 | 77 | > 440000 | C[C@@H](NC(=O)Nc1ccc2c(Cl)c(OCCBr)oc(=O)c2c1)c1ccccc1 [7-(R-α-methylbenzyl)carbamoylamino-4-chloro-3-(2-bromoethoxy)isocoumarin] | kinact/KI (chymotrypsin; [6]): 180 M⁻¹ s⁻¹; kinact/KI (chymotrypsin; [7]): 90 M⁻¹ s⁻¹
440 | 2660 |  | > 570000 | C[C@H](NC(=O)Nc1ccc2c(Cl)c(OCCBr)oc(=O)c2c1)c1ccccc1 [7-(S-α-methylbenzyl)carbamoylamino-4-chloro-3-(2-bromoethoxy)isocoumarin] | percentage of inhibition (cathepsin G; Table XVI): 21%
3980 | 24 | 170 |  | CC(=O)Nc1ccc2c(Cl)c(OCCCBr)oc(=O)c2c1 [7-acetylamino-4-chloro-3-(3-bromopropoxy)isocoumarin] | kinact/KI [1, 9]: 24400 M⁻¹ s⁻¹
890 | 3010 |  | 480000 | O=C(NCc1ccccc1)Nc1ccc2c(Cl)c(OCCBr)oc(=O)c2c1 [7-benzylcarbamoylamino-4-chloro-3-(2-bromoethoxy)isocoumarin] | percentage of inhibition (cathepsin G; Table XVI): 23%
 | 4470 | 77 | 646000 | CC(C)NC(=O)Nc1ccc2c(Cl)c(OCCBr)oc(=O)c2c1 [7-isopropylcarbamoylamino-4-chloro-3-(2-bromoethoxy)isocoumarin] | kinact/KI (chymotrypsin; [6]): 1340 M⁻¹ s⁻¹; kinact/KI (chymotrypsin; [7]): 380 M⁻¹ s⁻¹
1070 | 3650 | 240 |  | CC(C)(C)CC(=O)Nc1ccc2c(Cl)c(OCCBr)oc(=O)c2c1 [7-t-butylacetylamino-4-chloro-3-(2-bromoethoxy)isocoumarin] | 
320 | 6600 | 56 |  | CC(C)(C)NC(=O)Nc1ccc2c(Cl)c(OCCBr)oc(=O)c2c1 [7-t-butylcarbamoylamino-4-chloro-3-(2-bromoethoxy)isocoumarin] | 
